From US9353096B2, “Substituted phenylcarbamate compounds” (Hoffmann-La Roche Inc., priority 2012, dated 2016) come the findings set out here.

Each structure is given as a SMILES string. Structures can show the parent of a compound that is named as a salt.

The assay deals with hTRPA1 (Homo sapiens, UniProt O75762). Nature of the assay: Dose response calcium flux (FLIPR) assay, ChanTest hTRPA1-CHO stably transfected cell line, cinnamaldehyde agonist. In kind it is cell-based. The conditions noted are these: CHO-K1 Tet-On hTRPA1 cells, 100 uM cinnamaldehyde agonist, 30 min preincubation. Here is the method:
Dose Response Assay:ChanTest hTRPA1-CHO Stably Transfected Cell Line
CHO-K1 Tet-On_HOMSA_TRPA1_Clone_20
Growth Media for CHO-K1 Tet-On_HOMSA_TRPA1_Clone_20 • Ham's F-12 with 10% tetracycline-free FBS • 1× penicillin-streptomycin • 1× glutamax • 0.01 mg/ml Blasticidin • 0.40 mg/ml Zeocin • The cell line doubling rate was ˜15 h. […] Experiments were run at 24 h post induction.
Plating Conditions CHOK1/TRPA1 Cells: • Harvested cells with 0.025% trypsin/EDTA. • Resuspended cells in growth media without selection antibiotics. • Measured cell density and diluted to 2.4×10^5 cells/ml in media containing 1 ug/ml Doxycycline Plate 25 ul/well into 384 well black/clear tissue culture-treated plates. • Incubated overnight at 37° C.
Replacement Buffer: Hank's Balanced Salt Solution, 20 mM HEPES along with 0.005% BSA and 2× Probenecid
Dye Loading Buffer: Cal-3 NW Calcium dye was prepared by dissolving the contents of one vial with […] Hank's Balanced Salt Solution containing 20 mM HEPES.
AP-18, stock 10 mM, prepare 3.5× compound dilution in a Compound Buffer (HBSS/20 mM HEPES/0.005% BSA)—final concentration 10 uM.
Preparation of Cinnamaldehyde (Agonist Addition): • FW=132.16 • Specific gravity=1.046 gm/cc • 1.32 gm/1.046 gm/cc=1.26 ml of stock • Add 1.74 ml DMSO=3.3 M stock • Working solution 4.5× (final 100 uM in Compound Buffer: HBSS/20 mM HEPES/0.005% BSA)
Compounds dilutions were prepared from 5 or 10 mM stock (100% DMSO): • Adjustments of volumes and concentrations were made at time of titration to reflect desired final assay concentrations. • Compounds were tested at either 20 μM three folds dilution 11 steps out or 30 μM two folds dilution 11 steps out. • 3 μl of diluted compound were transferred into Weidmann 384-well plate in duplicates side-by-side. • Compound plates were resuspended with 100 ul of HBSS/20 mM HEPES/0.005% BSA buffer (Compound Buffer): • column 1A-H: buffer/DMSO (bk) • column 2A-H: AP-18 (control antagonist for CHOK1 TRPA1 cells) • column 1I-P: ATP (control for CHOK1 teton cells) • column 2I-P: 2APB (control antagonist for CHOK1/TRPM8 cells).
Growth media was removed from the cell plates (20 ul) and 20 μl of the Replacement Buffer was added followed by addition of 25 μl of diluted dye. All three steps were performed using a Plate Washer BioTek 407. The plates were then incubated for 30′ at RT.
After incubation, both the cell and compound plates were brought to the FLIPR and 20 μl of the diluted compounds/antagonist/bk were transferred to the cell plates by the FLIPR. Plates were then incubated for 30′ at room temperature. After 30′ incubation, plates were returned to the FLIPR and 20 μl of 4.5× Cinnamaldehyde was added to the cell plates. During the compound addition as well as agonist addition, fluorescence readings were taken simultaneously from all 384 wells of the cell plate every 1.5 seconds. Five readings were taken to establish a stable baseline, then 20 μl of sample was rapidly (30 ul/sec) and simultaneously added to each well of the cell plate. The fluorescence was continuously monitored before, during and after sample/agonist addition for a total elapsed time of 100 seconds (compound addition) and 120 seconds (agonist addition). Responses (increase in peak fluorescence) in each well following agonist addition was determined. The initial fluorescence reading from each well, prior to ligand stimulation, was used a zero baseline value for the data from that well.

Sequence of hTRPA1 (O75762 whole entry): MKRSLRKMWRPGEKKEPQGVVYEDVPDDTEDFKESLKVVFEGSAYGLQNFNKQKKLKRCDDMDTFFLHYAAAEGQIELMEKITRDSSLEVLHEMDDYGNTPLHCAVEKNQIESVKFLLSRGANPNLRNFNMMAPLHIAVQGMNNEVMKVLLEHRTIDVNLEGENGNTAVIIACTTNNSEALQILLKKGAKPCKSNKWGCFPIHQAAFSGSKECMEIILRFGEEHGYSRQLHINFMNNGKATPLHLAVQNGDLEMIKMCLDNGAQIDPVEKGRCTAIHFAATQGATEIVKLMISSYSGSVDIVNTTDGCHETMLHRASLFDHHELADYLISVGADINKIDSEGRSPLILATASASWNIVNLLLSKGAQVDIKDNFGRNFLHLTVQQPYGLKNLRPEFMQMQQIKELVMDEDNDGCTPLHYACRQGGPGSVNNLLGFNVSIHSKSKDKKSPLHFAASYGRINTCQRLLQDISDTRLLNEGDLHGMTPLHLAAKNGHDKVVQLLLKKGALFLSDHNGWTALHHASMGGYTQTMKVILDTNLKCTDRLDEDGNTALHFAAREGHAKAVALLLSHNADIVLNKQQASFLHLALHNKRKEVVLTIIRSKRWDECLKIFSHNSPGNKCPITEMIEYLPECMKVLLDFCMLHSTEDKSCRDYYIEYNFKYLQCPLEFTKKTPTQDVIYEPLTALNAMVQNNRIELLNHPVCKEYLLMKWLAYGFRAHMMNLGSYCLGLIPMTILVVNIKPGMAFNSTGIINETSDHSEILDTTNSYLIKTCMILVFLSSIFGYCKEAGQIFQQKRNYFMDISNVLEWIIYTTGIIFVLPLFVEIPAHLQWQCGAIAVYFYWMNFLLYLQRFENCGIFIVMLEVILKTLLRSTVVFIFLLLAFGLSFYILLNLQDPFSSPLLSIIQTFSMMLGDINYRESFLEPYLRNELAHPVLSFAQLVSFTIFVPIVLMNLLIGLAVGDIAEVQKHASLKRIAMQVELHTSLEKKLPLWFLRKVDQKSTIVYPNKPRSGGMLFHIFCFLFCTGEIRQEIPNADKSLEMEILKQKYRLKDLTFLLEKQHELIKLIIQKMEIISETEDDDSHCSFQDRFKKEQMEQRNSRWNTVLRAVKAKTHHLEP

With `O=C(Nc1ccc(Cl)cc1)O[C@@H](CN1CCOC(c2cccc(F)c2)C1)C(F)(F)F` (stereo partly drawn) [Example 47, (4-Chlorophenyl)-carbamic acid (S)-2,2,2-trifluoro-1-[2-(3-fluorophenyl)-morpholin-4-ylmethyl]-ethyl ester hydrochloride], the IC50 stood at 130 nM.
For `O=C(Nc1ccc(Cl)cc1)O[C@@H](CN1CCS(=O)(=O)CC1)C(F)(F)F` [Example 48, (4-Chlorophenyl)-carbamic acid (S)-1-(1,1-dioxo-1λ^6-thiomorpholin-4-ylmethyl)-2,2,2-trifluoroethyl ester hydrochloride] the value was 3560 nM; for `O=C(Nc1ccc(Cl)cc1)O[C@@H](CN1CCO[C@H](Cc2cccs2)C1)C(F)(F)F` [Example 49, (4-Chlorophenyl)-carbamic acid (S)-2,2,2-trifluoro-1-((R)-2-thiophen-2-ylmethyl-morpholin-4-ylmethyl)-ethyl ester hydrochloride], 115 nM; for `COc1ccc(C[C@@H]2CN(C[C@H](OC(=O)Nc3ccc(Cl)cc3)C(F)(F)F)CCO2)cn1` [Example 50, (4-Chloro-phenyl)-carbamic acid (S)-2,2,2-trifluoro-1-[(R)-2-(6-methoxy-pyridin-3-ylmethyl)-morpholin-4-ylmethyl]ethyl ester], 244 nM.
In the case of `COc1cccc(C[C@@H]2CN(C[C@H](OC(=O)Nc3ccc(Cl)cc3)C(F)(F)F)CCO2)n1` [Example 51, (4-Chlorophenyl)-carbamic acid (S)-2,2,2-trifluoro-1-[(R)-2-(6-methoxy-pyridin-2-ylmethyl)-morpholin-4-ylmethyl]ethyl ester], the IC50 stood at 398 nM.
